According to US20260337212A1, “IP4-4,6 SUBSTITUTED DERIVATIVE COMPOUNDS FOR USE IN THE TREATMENT, INHIBITION OF PROGRESSION, AND PREVENTION OF ECTOPIC CALCIFICATION” (SANIFIT THERAPEUTICS, S.A., priority 2022, published 2026):

Columns and labels:
[1] = Rat vitamin D3 model: walking ability, forced incremental treadmill test; type: in vivo, Sprague Dawley rat
Description: FIG. 14 depicts the mean maximum walking distance (±SD) in Sham rats (no VitD3 treatment) and rats treated with vehicle, Compound 27 (5, 15, and 45 mg/kg). Statistical analysis: One-way ANOVA with Fisher's LSD test for post-hoc comparisons. The result of the ANOVA was p<0.0001. (#) indicates significant differences vs. sham, (*) indicates significant differences vs vehicle, (§) indicates significant differences vs Compound 27 5 mg/kg (only applies to other Compound 27 doses), (¥) indicates significant differences vs Compound 27 15 mg/kg (only applies to Compound 27 45 mg/kg), (‡) significant differences vs Compound 27 45 mg/kg, p<0.05.
The model evaluated the effects of Compound 27 on tissue calcification, blood perfusion, and walking ability in rats for a duration of 13 days. Tissue calcification was induced in groups 2-5 from D1 to D3. […] The impact of treatment on tissue calcification, blood perfusion, and walking ability was evaluated. […]
Maximal walking time (MWT) and maximal walking distance (MWD) were assessed by forced incremental treadmill running tests using a two-lane touch screen treadmill device for rats (Cat. No. LE8709TS, Panlab, Harvard Biosciences, Inc., Holliston, MA, US) with a 15% inclination. […]
For group 2, the treadmill assessment started 15 min after dosing. […] MWD (in meters) and MWT (in minutes) were recorded for each animal.

[2] = Rat vitamin D3 model: tissue calcium content (ICP-OES); type: in vivo, Sprague Dawley rat; details: 5, 15, 45 mg/kg s.c. daily D1-D13
Description: FIG. 12 represents the mean calcium content (±SD) in Sham rats (no VitD3 treatment) and rats treated with vehicle or Compound 27 (5, 15, and 45 mg/kg) in (A) aorta, (B) heart, (C) femoral artery, (D) carotid arteries, and (E) kidney. For femoral and carotid arteries, the mean of the calcium content in left and right vessels was used. Statistical analysis: One-way ANOVA with Fisher's LSD test for post-hoc comparisons. (#) indicates significant differences vs. sham, (*) indicates significant differences vs vehicle, (§) indicates significant differences vs Compound 27 5 mg/kg (only applies to other Compound 27 doses), (¥) indicates significant differences vs Compound 27 15 mg/kg (only applies to Compound 27 45 mg/kg), p<0.05. N=7-12 animals/group.
The model evaluated the effects of Compound 27 on tissue calcification, blood perfusion, and walking ability in rats for a duration of 13 days. Tissue calcification was induced in groups 2-5 from D1 to D3. Animals induced with calcification were administered placebo or active agent formulations from D1 onwards to assess their effects in preventing calcification. The impact of treatment on tissue calcification, blood perfusion, and walking ability was evaluated. Observations were taken at several points during the treatment from D0 to D13. All animals were weighed every day before treatment.
Fifty-eight male Sprague Dawley (SD) rats (Envigo Corp., Huntingdon, GB) weighing approximately 275-300 g were used. The animals were fed with a standard LASQCdiet® Rod14-H4 diet (LASvendi, Soest, DE). The animals were divided in 5 groups, 10 to 12 animals per group, as follows: • Group 1—Control (sham), 10 animals • Group 2—Physiological saline solution (placebo) daily, 12 animals • Group 3—Compound 27, 5 mg/kg daily, 12 animals • Group 4—Compound 27, 15 mg/kg daily, 12 animals • Group 5—Compound 27, 45 mg/kg daily, 12 animals
Calcification was induced in the animals of groups 2-5 by subcutaneous administration of 120,000 IU/kg vitamin D3 (cholecalciferol, Duphafral D3 1000; Zoetis Inc., Parsippany, NJ, US) in physiological saline 0.9% (w/v) NaCl solution (2 mL/kg) daily from D1 to D3. Animals in group 1 were administered 2 mL/kg of physiological saline solution daily from D1 to D3 via subcutaneous route with no vitamin D3. Animals in group 2 were administered 2 mL/kg of physiological saline solution daily from D1 to D13 via subcutaneous route. Animals in groups 3, 4, and 5 were administered 5 mg/kg, 15 mg/kg, and 45 mg/kg, respectively, of Compound 27 (754.45 g/mol free acid) daily in physiological saline solution (2 mL/kg) from D1 to D13 via subcutaneous route.
All the living animals of groups 1-5 were sacrificed in D13 for determining their Ca values in tissue (i.e., aorta, carotids, femoral, heart, kidney).
The animals were exsanguinated before sacrifice. Their necropsies were performed, and their whole right and left femoral arteries, left and right carotids, aorta, heart, and right kidney were collected for calcium content measurement. The tissues were lyophilized for 24 h and weighed. The lyophilized tissues were then digested using a 1:1 HNO3:HClO4 mixture in a dry bath incubator for 2-4 h at 180° C. The digested tissues were subsequently diluted using ultra-pure Milli-Q water (MilliporeSigma, Merck KGaA, Burlington, MA, US) to a final volume of 5 mL (for femoral and carotid) or 10 mL (for heart, kidney and aorta). Calcium content was quantified via inductively coupled plasma optical emission spectrometry (ICP-OES) using an Optima 7300 DV ICP-OES System spectrometer (PerkinElmer, Inc., Waltham, MA, US) according to the manufacturer's instructions.

Q: Which “Effect on maximum walking distance” value ([1]; 5, 15, 45 mg/kg s.c. daily, FIG. 14) does the source give for “4,6-O-bis(5-acetamidopentyl)-myo-inositol-1,2,3,5-tetrakis(phosphate) octasodium salt [Compound 27]” here?
A: The value was “dose-response effect from 5 mg/kg”.

Q: And the “Improvement of walking ability” value ([1]; 15 and 45 mg/kg s.c. daily, as early as D5 after induction)?
A: The value was “improves the walking ability of rats administered with vitamin D as early as D5 after the induction of the PAD disease, in a dose-response manner”.

Q: And the “Inhibition of ectopic calcification in all evaluated tissues” value ([2]; aorta, carotids, femoral, heart, kidney)?
A: Its value is “inhibits ectopic calcification in all the evaluated tissues”.

Q: What about the “Inhibition of calcification in aorta” value ([2]; aorta, FIG. 12A) of the same substance?
A: The value was “observed at 45 mg/kg”.

Q: What about the “Inhibition of calcification in the carotids” value ([2]; carotids, FIG. 12D) of the same substance?
A: Its value is “observed at 45 mg/kg”.

Q: And the “Inhibition of calcification in the femoral arteries” value ([2]; femoral arteries, FIG. 12C)?
A: Its value is “dose-response effect from 5 mg/kg”.

Q: And the “Inhibition of calcification in the heart” value ([2]; heart, FIG. 12B)?
A: The value was “dose-response effect from 5 mg/kg”.

Q: What about the “Inhibition of calcification in the kidneys” value ([2]; kidney, FIG. 12E) of the same substance?
A: Its value is “dose-response effect from 5 mg/kg”.
